Source: PMC7413516, “Antidepressant-like activity and safety profile evaluation of 1H-imidazo[2,1-f]purine-2,4(3H,8H)-dione derivatives as 5-HT1A receptor partial agonists” (PLoS ONE, 2020)
“And” between values parts separate entries of the source, which are not always exact repeats. Identical values can stand only once. Like-named read-outs stand apart in the source and are kept apart here.

Assay: Pharmacokinetic study in mice, plasma and brain structures, LC/MS/MS
Format: in vivo, Swiss albino mice
Conditions: 0.625 mg/kg i.p.; for Kp: ratio of AUC values
Procedure: Blood samples from the Swiss albino mice were collected at 0 (pre-dose), 5, 15, 30, 60, 120, 240 and 480 min after a compound administration. The blood samples and brain structures were collected under general anesthesia induced by i.p. injection of 50 mg/kg ketamine plus 8 mg/kg xylazine. The blood samples were taken into heparinized tubes, immediately centrifuged at 1000 × g for 10 min, and plasma was collected. The plasma samples and brain structures were immediately frozen at -30°C and -80°C, respectively.
The plasma and tissue sample pretreatment procedure involved acetonitrile precipitation. A 5 μL aliquot of the IS working solution (100 ng/mL) was added to 50 μL of the collected mouse plasma sample, which was then vortex-mixed for 10 seconds. Thereafter, 200 μL of acetonitrile was added, vortexed during 20 min, and then centrifuged (1000 × g, 10 min). The supernatant (100 μL) was then transferred to insert placed in an autosampler vial, and a 10 μL volume of this was injected onto the HPLC column. Tissue samples were thawed before use, and whole hippocampus, striatum and frontal cortex were weighted and placed in a glass mortar and pestle tissue grinder and homogenized with an appropriate amount of phosphate buffer (pH 7.4) in 1:5 ratio. Afterward, 50 μL of tissue homogenates were transferred to new Eppendorf tubes and spiked with 5 μL of the internal standard working solution. All samples were stored on ice during the preparation process. This was followed by procedures like those described above.
The LC/ESI-MS/MS experiments were performed on an Applied Biosystems/MDS Sciex (Concord, Ontario, Canada) API 2000 triple quadrupole mass spectrometer equipped with an electrospray (ESI) ionization interface. This instrument was coupled to an Agilent 1100 (Agilent Technologies, Waldbronn, Germany) LC system. Data acquisition and processing were accomplished using Sciex Analyst 1.4.2 data collection and integration software.
An XBridge C18 (2.1 x 30 mm, 3.5 μm) analytical column (Waters, Milford, Massachusetts, USA) was used for compound separation. The temperatures of the column thermostat and the autosampler were set at 25°C and 10°C, respectively. The mobile phase consisted of a mixture of acetonitrile with addition of 0.1% formic acid (solvent A) and water with addition of 0.1% formic acid (solvent B) and was set at a flow rate of 0.6 mL/min. Starting amount of solvent A is 10%, isocratic elution from 0 to 3 min, and then gradient up to 90% of solvent A, and maintained to 10 min, and then gradient down to 10% of solvent A, and maintained to 15 min.
The ion source parameters were as follows: ion spray voltage: 5500 V; nebulizer gas (gas 1): 20 psi; turbo gas (gas 2): 25 psi; temperature of the heated nebulizer: 400°C; curtain gas: 40 psi; collision gas: 6 psi. Mass spectra were acquired by SRM with precursor/predominant product ion transitions for each analyte. The mass spectral Q1→Q3 transitions monitored for AZ-853, AZ-861 and for IS (nebivolol), were m/z 453.9→235.1; 504.3→285.1 and 406.2→151.1, respectively. The peak widths of precursor and product ions were set to 0.7 full width half-height. Quantification was done via peak area ratio.
Pharmacokinetic parameters were calculated by a non-compartmental approach from the average concentration values, using Phoenix WinNonlin software (Certara, Princeton, NJ 08540 USA). First order elimination rate constant (λz) was calculated by linear regression of time versus log concentration. Next, the area under the mean serum and tissue concentration versus time curve (AUC0→t) was estimated using the log-linear trapezoidal rule (1), where Ci is the plasma concentration measured at t1.
AUC0→t=∑i=1n((Ci+Ci+1)/2)∙(ti+1−ti). (1)
Area under the first-moment curve (AUMC0→t) was estimated by calculation of the total area under the first-moment curve using the Eq (2), where Ci is the plasma concentration measured at t1. AUMC0→t=∑i=1n((ti∙Ci+ti+1∙Ci+1)/2)∙(ti+1−ti). […]

[1] = Swiss albino, mouse, frontal cortex, ip, 0.625 mg/kg, read-out: Concentration, frontal cortex (Mean)
[2] = Swiss albino, mouse, frontal cortex, ip, 0.625 mg/kg, read-out: Concentration, frontal cortex (individual animals)

SMILES: Cn1c(=O)c2c(nc3n(CCCCN4CCN(c5ccccc5F)CC4)ccn23)n(C)c1=O [AZ-853, 8-(4-(4-(2-fluorophenyl)piperazin-1-yl)butyl)-1,3-dimethyl-1H-imidazo[2,1-f]purine-2,4(3H,8H)-dione]
- t0.5: ca. 1.5 h
- t0.5, frontal cortex: 73.8 min
- t0.5, hippocampus: 140.8 min
- t0.5, striatum: 74.3 min
- Cmax, plasma (0.625 mg/kg): 23.1 ng/mL
- t0.5, plasma (0.625 mg/kg): 81 min and 81.6 min
- Concentration, frontal cortex (individual animals) (15 min, 0.625 mg/kg): 252.14 ng/mL and 309.85 ng/mL and 312.66 ng/mL and 273.19 ng/mL and 294.14 ng/mL
- Concentration, hippocampus (individual animals) (15 min, 0.625 mg/kg): 298.87 ng/mL and 267.61 ng/mL and 299.52 ng/mL and 245.78 ng/mL and 289.53 ng/mL
- Concentration, plasma (individual animals) (15 min, 0.625 mg/kg): 13.52 ng/mL and 11.72 ng/mL and 14.74 ng/mL and 12.63 ng/mL and 15.85 ng/mL
- Concentration, striatum (individual animals) (15 min, 0.625 mg/kg): 445.83 ng/mL and 472.52 ng/mL and 361.97 ng/mL and 346.18 ng/mL and 398.36 ng/mL
- Concentration, frontal cortex (individual animals) (30 min, 0.625 mg/kg): 130.57 ng/mL and 174.17 ng/mL and 183.87 ng/mL and 124.72 ng/mL and 156.16 ng/mL
- Concentration, hippocampus (individual animals) (30 min, 0.625 mg/kg): 132.11 ng/mL and 120.56 ng/mL and 144.33 ng/mL and 115.85 ng/mL and 113.92 ng/mL
- Concentration, plasma (individual animals) (30 min, 0.625 mg/kg): 7.23 ng/mL and 6.19 ng/mL and 8.12 ng/mL and 7.41 ng/mL and 8.48 ng/mL
- Concentration, striatum (individual animals) (30 min, 0.625 mg/kg): 208.14 ng/mL and 240.54 ng/mL and 302.57 ng/mL and 256.75 ng/mL and 253.77 ng/mL
- Concentration, frontal cortex (individual animals) (60 min, 0.625 mg/kg): 87.55 ng/mL and 56.45 ng/mL and 81.65 ng/mL and 55.78 ng/mL and 58.24 ng/mL
- Concentration, hippocampus (individual animals) (60 min, 0.625 mg/kg): 35.33 ng/mL and 56.52 ng/mL and 54.16 ng/mL and 46.72 ng/mL and 33.91 ng/mL
- Concentration, plasma (individual animals) (60 min, 0.625 mg/kg): 2.33 ng/mL and 1.80 ng/mL and 1.95 ng/mL and 1.94 ng/mL and 1.84 ng/mL and 0.83 ng/mL
- Concentration, striatum (individual animals) (60 min, 0.625 mg/kg): 49.55 ng/mL and 56.86 ng/mL and 68.93 ng/mL and 73.14 ng/mL and 66.26 ng/mL
- Concentration, frontal cortex (individual animals) (120 min, 0.625 mg/kg): 32.55 ng/mL and 33.75 ng/mL and 20.15 ng/mL and 30.26 ng/mL and 26.34 ng/mL
- Concentration, hippocampus (individual animals) (120 min, 0.625 mg/kg): 15.62 ng/mL and 13.22 ng/mL and 11.37 ng/mL and 10.24 ng/mL and 11.13 ng/mL
- Concentration, plasma (individual animals) (120 min, 0.625 mg/kg): 4.86 ng/mL and 4.58 ng/mL and 4.97 ng/mL and 3.54 ng/mL and 3.31 ng/mL
- Concentration, striatum (individual animals) (120 min, 0.625 mg/kg): 39.45 ng/mL and 31.62 ng/mL and 38.75 ng/mL and 47.66 ng/mL and 39.13 ng/mL
- Concentration, frontal cortex (individual animals) (240 min, 0.625 mg/kg): 24.26 ng/mL and 26.65 ng/mL and 19.77 ng/mL and 20.56 ng/mL
- Concentration, hippocampus (individual animals) (240 min, 0.625 mg/kg): 6.95 ng/mL and 9.12 ng/mL and 10.23 ng/mL and 6.87 ng/mL
- Concentration, plasma (individual animals) (240 min, 0.625 mg/kg): 0.37 ng/mL and 0.35 ng/mL and 0.45 ng/mL and 0.53 ng/mL and 0.33 ng/mL and 0.26 ng/mL
- Concentration, striatum (individual animals) (240 min, 0.625 mg/kg): 2.35 ng/mL and 3.41 ng/mL and 6.93 ng/mL and 8.25 ng/mL and 6.34 ng/mL
- Kp (Swiss albino, mouse, frontal cortex, ip, read-out: Brain structure-to-plasma concentration ratio, frontal cortex (FC/P)): 18.1
- AUC(0-t) (Swiss albino, mouse, frontal cortex, ip, read-out: AUC0→t, frontal cortex (converted)): 321 ng·h/mL
- MRT (Swiss albino, mouse, frontal cortex, ip, read-out: MRT, frontal cortex (converted)): 1.5 h
- concentration at 5 min [1]: 306 ng/mL
- concentration at 5 min [2]: 268 ng/mL
- concentration at 15 min (Swiss albino, mouse, frontal cortex, ip, 0.625 mg/kg, 15 min, read-out: Concentration, frontal cortex (Mean)): 293 ng/mL
- concentration at 15 min (Swiss albino, mouse, frontal cortex, ip, 0.625 mg/kg, 15 min, read-out: Concentration, frontal cortex (individual animals)): 318 ng/mL
- concentration at 30 min (Swiss albino, mouse, frontal cortex, ip, 0.625 mg/kg, 30 min, read-out: Concentration, frontal cortex (Mean)): 156 ng/mL
- concentration at 30 min (Swiss albino, mouse, frontal cortex, ip, 0.625 mg/kg, 30 min, read-out: Concentration, frontal cortex (individual animals)): 165 ng/mL
- concentration at 60 min (Swiss albino, mouse, frontal cortex, ip, 0.625 mg/kg, 60 min, read-out: Concentration, frontal cortex (Mean)): 66 ng/mL
- concentration at 60 min (Swiss albino, mouse, frontal cortex, ip, 0.625 mg/kg, 60 min, read-out: Concentration, frontal cortex (individual animals)): 56.3 ng/mL
- concentration at 120 min (Swiss albino, mouse, frontal cortex, ip, 0.625 mg/kg, 120 min, read-out: Concentration, frontal cortex (Mean)): 27.5 ng/mL
- concentration at 120 min (Swiss albino, mouse, frontal cortex, ip, 0.625 mg/kg, 120 min, read-out: Concentration, frontal cortex (individual animals)): 22.2 ng/mL
- concentration at 240 min (Swiss albino, mouse, frontal cortex, ip, 0.625 mg/kg, 240 min, read-out: Concentration, frontal cortex (Mean)): 23.3 ng/mL
- concentration at 240 min (Swiss albino, mouse, frontal cortex, ip, 0.625 mg/kg, 240 min, read-out: Concentration, frontal cortex (individual animals)): 20.8 ng/mL
- concentration at 480 min [1]: 14.6 ng/mL
- concentration at 480 min [2]: 18.6 ng/mL
- Cmax (Swiss albino, mouse, frontal cortex, ip, 0.625 mg/kg, read-out: Cmax, frontal cortex): 306 ng/g
- Tmax (Swiss albino, mouse, frontal cortex, ip, 0.625 mg/kg, read-out: tmax, frontal cortex (converted)): 5 min
- Kp (Swiss albino, mouse, hippocampus, ip, read-out: Brain structure-to-plasma concentration ratio, hippocampus (H/P)): 11.9
- AUC(0-t) (Swiss albino, mouse, hippocampus, ip, read-out: AUC0→t, hippocampus (converted)): 210 ng·h/mL
- MRT (Swiss albino, mouse, hippocampus, ip, read-out: MRT, hippocampus (converted)): 1.19 h
- concentration at 5 min (Swiss albino, mouse, hippocampus, ip, 0.625 mg/kg, read-out: Concentration, hippocampus (Mean)): 191 ng/mL
